Reference: patent publication US7445794B1, “Methods for treating human proliferative diseases, with a combination of fatty acid metabolism inhibitors and glycolytic inhibitors” (The Regents of the University of Colorado, priority 2004, dated 2008)

System: HL60 MDR tumor
Assay: Tumor volume of HL60 MDR tumor implanted in nude mice
Assay type: in vivo
Conditions: for effect on tumor growth (in words): over the 21 day period, versus control
Excerpt: Mice were purchased from the Animal Production Program of National Cancer Institute, Frederick, Md. The animals used were Athymic Ncr-nu/nu (strain code 01B74). HL60 MDR cells were harvested and reconstituted at 1 million cells per 100 microliters of phosphate buffered saline. One million tumor cells per injection site were implanted subcutaneously on two sites of the animal's back. Treatments began at exactly seven days post tumor implantation. Tumor size/volume was monitored twice weekly using measurement calipers, with the formula Tumor Volume=π×(short diameter)^2×(long diameter)/6.
Treatment groups were: etomoxir at 200 micrograms/day; 2-deoxy-D-glucose at 2.5 mM in 100 microliters daily; and the combination daily of etomoxir at 200 micrograms and 2-deoxy-D-glucose at 2.5 mM in 100 microliters.
HL60 MDR human leukemia cells were cultured and implanted in nude mice as described above under “Materials and Methods”. The mice were given 200 ug of Etomoxir, 2.5 mM 2-Deoxy-D-glucose, or both 200 ug of Etomoxir and 2.5 mM 2-Deoxy-D-glucose given daily by IP injection. Treatment began exactly one week after tumor implantation.

Compound	effect on tumor growth (in words)	tumor volume Day 7 (Day 7 after implantation (start of daily IP treatment), etomoxir 200 ug, 2-deoxy-D-glucose 2.5 mM) [mm^3]
OC[C@H]1O[C@H](O)CC(O)[C@@H]1O (stereo partly drawn) [2-deoxy-D-glucose]	increase in tumor growth	
CCOC(=O)C1(CCCCCCOc2ccc(Cl)cc2)CO1 (stereo not drawn) [etomoxir, 2-(6-(4-chlorophenoxy)-hexyl)-oxirane-2-carboxylic acid ethyl ester]	increase in tumor growth	36
